Measured values: US12071404B2, “Aza (indole)-, benzothiophene-, and benzofuran-3-sulfonamides” (UCB Pharma GmbH, priority 2016, dated 2024)

Columns and labels:
GPR17 [1] = molecular target: T1, GPR17 (Homo sapiens, UniProt Q13304); test: Calcium mobilization functional assay (GPR17 Ca2+ assay); assay type: cell-based; parameters: host or cells: Flp-In T-REx CHO; conditions: CHO hGPR17 cells, inhibition of 50 nM MDL29,951, Calcium 5 dye, FLIPR; read-out: Ca2+ assay pIC50 (converted)
In short: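 Flp-In T-REx CHO cells stably expressing human GPR17, doxycycline-induced (1 μg/mL, 16-20 h), loaded 60 min with Calcium 5 dye. Inhibition by varying test-compound concentrations of the 50 nM MDL29,951 agonist response was read by fluorescence over time at room temperature. pIC50 came from 4-parameter logistic fitting.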

GPR17 [2] = molecular target: T1, GPR17; test: cAMP accumulation functional assay (HTRF, Schild analysis); assay type: cell-based; parameters: host or cells: Flp-In T-REx CHO; conditions: CHO hGPR17 cells, Schild analysis vs MDL29,951, 5 μM forskolin, read-out: cAMP assay pA2 (converted)
Experimental: Flp-In T-REx CHO cells stably expressing human GPR17 receptor (CHO hGPR17) from Evi Kostenis' lab (Bonn University, Germany) were cultured at 37° C. in a humidified atmosphere of 5% CO2. Cells were grown in DMEM with Nutrient Mixture F-12 supplemented with hygromycin B (500 μg/mL) and blasticidin (30 μg/mL). Expression from the Flp-In locus was induced by treatment with doxycycline (1 μg/mL) for 16-20 h prior assays.
GPR17 activation can also recruit Gi-type G-protein signaling, resulting in a decrease of intracellular cyclic adenosine monophosphate (cAMP). Intracellular cAMP changes can be measured using the HTRF cAMP dynamic assay kit from CisBio (Codolet, France). Using homogenous time-resolved fluorescence technology (HTRF), the assay is based on competition between native cAMP produced by cells and cAMP labelled with the dye d2. The tracer binding was determined by an anti-cAMP antibody labeled with cryptate.
CHO hGPR17 were detached with PBS containing EDTA and dispatched in black 384-well plates with 5,000 cells per well. Cells were first incubated for 30 minutes at room temperature in HBSS Hepes (pH 7.4) containing vehicle or varying concentrations of test GPR17 antagonist/inverse agonist compounds. […] After 60 minutes incubation at room temperature, the reaction is terminated and the cells lysed by adding the d2 detection reagent and the cryptate reagent in 10 μL lysis buffer each according to manufacturer's instructions. After 60 minutes incubation, changes in cAMP concentrations are measured according to manufacturer's instructions using an Envision plate reader with laser excitation. All incubations were performed in duplicate. Data was analyzed using GraphPad Prism software using the 4-parameter logistic equation to measure MDL29,951 pEC50s in absence and presence of GPR17 antagonist/inverse agonist test compounds. Dose ratio (DR) were plotted against antagonist concentrations and Schild analysis provided estimated affinity pA2 of GPR17 antagonist/inverse agonist test compounds.
The activities of the Example compounds tested are depicted in the table below. The activity ranges A, B and C refer to pA2 values in the cAMP assay as follows: “A”: pA2<7.5, “B”: pA2 7.5<x≤8.5, “C”: pA2>8.5.

T1 sequence (Q13304 whole entry): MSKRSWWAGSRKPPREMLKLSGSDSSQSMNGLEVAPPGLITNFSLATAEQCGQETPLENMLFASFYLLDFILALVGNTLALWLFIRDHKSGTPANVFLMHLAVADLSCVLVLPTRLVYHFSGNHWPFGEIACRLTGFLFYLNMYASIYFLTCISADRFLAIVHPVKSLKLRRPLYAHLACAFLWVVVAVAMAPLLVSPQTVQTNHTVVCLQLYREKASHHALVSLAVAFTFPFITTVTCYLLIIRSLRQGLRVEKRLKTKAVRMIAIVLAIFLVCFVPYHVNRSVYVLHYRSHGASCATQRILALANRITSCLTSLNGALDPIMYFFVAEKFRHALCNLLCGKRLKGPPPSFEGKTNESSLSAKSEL

| Compound | IC50 (GPR17 [1]) | Kb (GPR17 [2]) |
| --- | --- | --- |
| O=S(=O)(Nc1cccc2c1OCO2)c1c[nH]c2cc(Cl)ccc12 [Compound I-25, N-(1,3-benzodioxol-4-yl)-6-chloro-1H-indole-3-sulfonamide] | < 3.16 nM | 3.16 to 31.6 nM |
| O=S(=O)(Nc1nc(F)c(Br)cc1F)c1c[nH]c2cc(Cl)ccc12 [Compound I-245, N-(5-bromo-3,6-difluoropyridin-2-yl)-6-chloro-1H-indole-3-sulfonamide] | < 3.16 nM | < 3.16 nM |
| Cc1cc(F)c(NS(=O)(=O)c2c[nH]c3cc(Cl)ccc23)cc1F [Compound I-270, 6-chloro-N-(2,5-difluoro-4-methylphenyl)-1H-indole-3-sulfonamide] | < 3.16 nM | < 3.16 nM |
| N#CCOc1cc(F)c(NS(=O)(=O)c2c[nH]c3c2ccc2cccnc23)cc1F [Compound I-360, N-[4-(cyanomethoxy)-2,5-difluorophenyl]-1H-pyrrolo[3,2-h]quinoline-3-sulfonamide] | < 3.16 nM | < 3.16 nM |
| O=S(=O)(Nc1cc(F)c(Cl)cc1F)c1c[nH]c2c(Cl)c(Br)ccc12 [Compound I-347, 6-bromo-7-chloro-N-(4-chloro-2,5-difluorophenyl)-1H-indole-3-sulfonamide] | 3.16 to 31.6 nM | < 3.16 nM |
| COCCCc1cc(F)c(NS(=O)(=O)c2c[nH]c3cc(Br)ccc23)nc1F [Compound I-323, 6-bromo-N-[3,6-difluoro-5-(3-methoxypropyl)pyridin-2-yl]-1H-indole-3-sulfonamide] | < 3.16 nM | < 3.16 nM |
| O=S(=O)(Nc1cccc2nsnc12)c1c[nH]c2nc(Br)ccc12 [Compound I-78, N-(2,1,3-benzothiadiazol-4-yl)-6-bromo-1H-pyrrolo[2,3-b]pyridine-3-sulfonamide] | < 3.16 nM | 3.16 to 31.6 nM |
| COc1cc(CC#N)cnc1NS(=O)(=O)c1c[nH]c2cc(Cl)ccc12 [Compound I-194, 6-chloro-N-[5-(cyanomethyl)-3-methoxypyridin-2-yl]-1H-indole-3-sulfonamide] | < 3.16 nM | < 3.16 nM |
| COc1nc(NS(=O)(=O)c2c[nH]c3c(Br)c(Cl)ccc23)c(F)cc1Cl [Compound I-321, 7-bromo-6-chloro-N-(5-chloro-3-fluoro-6-methoxypyridin-2-yl)-1H-indole-3-sulfonamide] | < 3.16 nM | < 3.16 nM |
| O=S(=O)(Nc1ccc2nsnc2c1)c1c[nH]c2nc(Cl)ccc12 [Compound I-179, N-(2,1,3-benzothiadiazol-5-yl)-6-chloro-1H-pyrrolo[2,3-b]pyridine-3-sulfonamide] | < 3.16 nM | 3.16 to 31.6 nM |
| N#Cc1ccc2c(S(=O)(=O)Nc3cc(F)c(Cl)cc3F)c[nH]c2c1 [Compound I-277, N-(4-chloro-2,5-difluorophenyl)-6-cyano-1H-indole-3-sulfonamide] | 3.16 to 31.6 nM | < 3.16 nM |
| O=S(=O)(Nc1cc(F)c(OC(F)F)cc1F)c1c[nH]c2nc(C(F)F)ccc12 [Compound I-363, N-[4-(difluoromethoxy)-2,5-difluorophenyl]-6-(difluoromethyl)-1H-pyrrolo[2,3-b]pyridine-3-sulfonamide] | 3.16 to 31.6 nM | 3.16 to 31.6 nM |
| CCc1cc(F)c(NS(=O)(=O)c2c[nH]c3cc(Cl)ccc23)nc1F [Compound I-338, 6-chloro-N-(5-ethyl-3,6-difluoropyridin-2-yl)-1H-indole-3-sulfonamide] | < 3.16 nM | < 3.16 nM |
| COc1ccc2c(S(=O)(=O)Nc3cc(F)c(C#N)cc3F)c[nH]c2c1 [Compound I-291, N-(4-cyano-2,5-difluorophenyl)-6-methoxy-1H-indole-3-sulfonamide] | < 3.16 nM | < 3.16 nM |
| CC(C)c1ccc2c(S(=O)(=O)Nc3ccc(C#N)cc3F)c[nH]c2c1 [Compound I-170, N-(4-cyano-2-fluorophenyl)-6-(propan-2-yl)-1H-indole-3-sulfonamide] | < 3.16 nM | < 3.16 nM |
| COc1nc(NS(=O)(=O)c2c[nH]c3cc([N+](=O)[O-])ccc23)c(F)cc1CC#N [Compound I-351, N-[5-(cyanomethyl)-3-fluoro-6-methoxypyridin-2-yl]-6-nitro-1H-indole-3-sulfonamide] | 3.16 to 31.6 nM | 3.16 to 31.6 nM |

| Compound | IC50 (GPR17 [1]) | Kb (GPR17 [2]) |
| --- | --- | --- |
| N#Cc1cc(F)c(NS(=O)(=O)c2c[nH]c3cc(Cl)ccc23)c(F)c1 [Compound I-182, 6-chloro-N-(4-cyano-2,6-difluorophenyl)-1H-indole-3-sulfonamide] | < 3.16 nM | 3.16 to 31.6 nM |
| COc1nc(NS(=O)(=O)c2c[nH]c3cc(Cl)ccc23)c(F)cc1F [Compound I-345, 6-chloro-N-(3,5-difluoro-6-methoxypyridin-2-yl)-1H-indole-3-sulfonamide] | 3.16 to 31.6 nM | 3.16 to 31.6 nM |
| O=S(=O)(Nc1cc(F)c(OC(F)F)cc1F)c1c[nH]c2nc(Cl)ccc12 [Compound I-266, 6-chloro-N-[4-(difluoromethoxy)-2,5-difluorophenyl]-1H-pyrrolo[2,3-b]pyridine-3-sulfonamide] | < 3.16 nM | < 3.16 nM |
| Cc1c(Br)ccc2c(S(=O)(=O)Nc3ncc(Cl)cc3F)c[nH]c12 [Compound I-326, 6-bromo-N-(5-chloro-3-fluoropyridin-2-yl)-7-methyl-1H-indole-3-sulfonamide] | 3.16 to 31.6 nM | < 3.16 nM |
| C#Cc1ccc(NS(=O)(=O)c2c[nH]c3c2ccc2cccnc23)c(F)c1 [Compound I-306, N-(4-ethynyl-2-fluorophenyl)-1H-pyrrolo[3,2-h]quinoline-3-sulfonamide] | 3.16 to 31.6 nM | < 3.16 nM |
| O=S(=O)(Nc1cc(F)c(C(F)(F)F)cc1F)c1c[nH]c2cc(Cl)ccc12 [Compound I-269, 6-chloro-N-[2,5-difluoro-4-(trifluoromethyl)phenyl]-1H-indole-3-sulfonamide] | < 3.16 nM | < 3.16 nM |
| O=S(=O)(Nc1cc(F)c(Cl)cc1F)c1c[nH]c2c(OCC(F)F)c(Cl)ccc12 [Compound I-262, 6-chloro-N-(4-chloro-2,5-difluorophenyl)-7-(2,2-difluoroethoxy)-1H-indole-3-sulfonamide] | 3.16 to 31.6 nM | < 3.16 nM |
| O=S(=O)(Nc1ccc(Cl)cc1F)c1c[nH]c2nc(Br)ccc12 [Compound I-278, 6-bromo-N-(4-chloro-2-fluorophenyl)-1H-pyrrolo[2,3-b]pyridine-3-sulfonamide] | 3.16 to 31.6 nM | < 3.16 nM |
| COc1nc(NS(=O)(=O)c2c[nH]c3cc(N=[N+]=[N-])ccc23)c(F)cc1CC#N [Compound I-353, 6-azido-N-[5-(cyanomethyl)-3-fluoro-6-methoxypyridin-2-yl]-1H-indole-3-sulfonamide] | < 3.16 nM | < 3.16 nM |
| O=S(=O)(Nc1cccc2c1OCO2)c1c[nH]c2nc(Br)ccc12 [Compound I-97, N-(1,3-benzodioxol-4-yl)-6-bromo-1H-pyrrolo[2,3-b]pyridine-3-sulfonamide] | 3.16 to 31.6 nM | 3.16 to 31.6 nM |
| COc1cc(F)c(NS(=O)(=O)c2c[nH]c3cc(Cl)ccc23)cc1F [Compound I-298, 6-chloro-N-(2,5-difluoro-4-methoxyphenyl)-1H-indole-3-sulfonamide] | 3.16 to 31.6 nM | 3.16 to 31.6 nM |
| N#Cc1ccc(NS(=O)(=O)c2c[nH]c3cc(Cl)c(Br)cc23)c(F)c1 [Compound I-343, 5-bromo-6-chloro-N-(4-cyano-2-fluorophenyl)-1H-indole-3-sulfonamide] | 3.16 to 31.6 nM | < 3.16 nM |
| O=S(=O)(Nc1cccc2c1OCO2)c1c[nH]c2nc(Cl)ccc12 [Compound I-96, N-(1,3-benzodioxol-4-yl)-6-chloro-1H-pyrrolo[2,3-b]pyridine-3-sulfonamide] | 3.16 to 31.6 nM | > 31.6 nM |
| O=S(=O)(Nc1cccc2n[se]nc12)c1c[nH]c2cc(Cl)ccc12 [Compound I-142, N-(2,1,3-benzoselenadiazol-4-yl)-6-chloro-1H-indole-3-sulfonamide] | < 3.16 nM | < 3.16 nM |
| O=S(=O)(Nc1cc(F)c(Cl)cc1F)c1c[nH]c2cc3c(cc12)OCO3 [Compound I-271, N-(4-chloro-2,5-difluorophenyl)-5H-[1,3]dioxolo[4,5-f]indole-7-sulfonamide] | < 3.16 nM | < 3.16 nM |
